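Cells were grown in 96-well plates and exposed to each compound for 48 hours at five concentrations; endpoints were interpolated linearly between bracketing concentrations, or set to the highest concentration if not reached. Here, GI50 denotes the concentration required for 50% inhibition of growth.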 Calls of active or inactive are those of the source. No stated cut-off is given here; in the data, active = GI50 up to about 1.1 µM and inactive = higher.
What was measured:
Experiment in all cases: NCI-60 cell line screen, 48 h
786-0 = test system: 786-0
A549 = test system: A549
ACHN = test system: ACHN
BT-549 = test system: BT-549
CAKI-1 = test system: CAKI-1
CCRF-CEM = test system: CCRF-CEM
COLO 205 = test system: COLO 205
DU-145 = test system: DU-145
EKVX = test system: EKVX
HCC 2998 = test system: HCC 2998
HCT-116 = test system: HCT-116
HCT-15 = test system: HCT-15
HL-60 = test system: HL-60
HOP-62 = test system: HOP-62
HT-29 = test system: HT-29
Hs-578T = test system: Hs-578T
IGROV-1 = test system: IGROV-1
K562 = test system: K562
KM12 = test system: KM12
LOX IMVI = test system: LOX IMVI
M14 = test system: M14
MCF7 = test system: MCF7
MDA-MB-231 = test system: MDA-MB-231
MDA-MB-435 = test system: MDA-MB-435
MDA-N = test system: MDA-N
MOLT-4 = test system: MOLT-4
Malme-3M = test system: Malme-3M
NCI-H226 = test system: NCI-H226
NCI-H23 = test system: NCI-H23
NCI-H460 = test system: NCI-H460
NCI-H522 = test system: NCI-H522
NCI/ADR-RES = test system: NCI/ADR-RES
OVCAR-3 = test system: OVCAR-3
OVCAR-4 = test system: OVCAR-4
OVCAR-5 = test system: OVCAR-5
OVCAR-8 = test system: OVCAR-8
PC-3 = test system: PC-3
RPMI-8226 = test system: RPMI-8226
RXF 393 = test system: RXF 393
SF-268 = test system: SF-268
SF-295 = test system: SF-295
SK-MEL-28 = test system: SK-MEL-28
SK-MEL-2 = test system: SK-MEL-2
SK-MEL-5 = test system: SK-MEL-5
SK-OV-3 = test system: SK-OV-3
SN12C = test system: SN12C
SNB-19 = test system: SNB-19
SNB-75 = test system: SNB-75
SR = test system: SR
SW-620 = test system: SW-620
T47D = test system: T47D
TK-10 = test system: TK-10
U-251 = test system: U-251
UACC-257 = test system: UACC-257
UACC-62 = test system: UACC-62
UO-31 = test system: UO-31
A498 = test system: A498
SF-539 = test system: SF-539
HOP-92 = test system: HOP-92

Measured: GI50

CCC1(CC)C(=O)NN(C(=O)c2ccc(Cl)cc2)C1=O
> 100 µM: HCT-15
active: Malme-3M 0.23 µM
inactive: 786-0 > 100 µM | A549 > 100 µM | ACHN > 100 µM | BT-549 > 100 µM | CAKI-1 > 100 µM | CCRF-CEM > 100 µM | COLO 205 > 100 µM | DU-145 > 100 µM | EKVX > 100 µM | HCC 2998 > 100 µM | HCT-116 > 100 µM | HL-60 > 100 µM | HOP-62 > 100 µM | HT-29 > 100 µM | Hs-578T > 100 µM | IGROV-1 > 100 µM | K562 > 100 µM | KM12 > 100 µM | LOX IMVI > 100 µM | M14 > 100 µM | MCF7 > 100 µM | MDA-MB-231 > 100 µM | MDA-MB-435 > 100 µM | MDA-N > 100 µM | MOLT-4 > 100 µM | NCI-H226 > 100 µM | NCI-H23 > 100 µM | NCI-H460 > 100 µM | NCI-H522 32.1 µM | NCI/ADR-RES > 100 µM | OVCAR-3 > 100 µM | OVCAR-4 > 100 µM | OVCAR-5 > 100 µM | OVCAR-8 > 100 µM | PC-3 > 100 µM | RPMI-8226 > 100 µM | RXF 393 > 100 µM | SF-268 > 100 µM | SF-295 > 100 µM | SK-MEL-28 > 100 µM | SK-MEL-2 > 100 µM | SK-MEL-5 > 100 µM | SK-OV-3 > 100 µM | SN12C > 100 µM | SNB-19 > 100 µM | SNB-75 > 100 µM | SR > 100 µM | SW-620 > 100 µM | T47D > 100 µM | TK-10 > 100 µM | U-251 > 100 µM | UACC-257 > 100 µM | UACC-62 > 100 µM | UO-31 > 100 µM

CN(C)CCNC(=O)c1cccc(CO)c1[N+](=O)[O-]
inactive: 786-0 > 100 µM | A498 > 100 µM | A549 > 100 µM | ACHN > 100 µM | BT-549 > 100 µM | CAKI-1 > 100 µM | CCRF-CEM > 100 µM | COLO 205 > 100 µM | DU-145 > 100 µM | HCC 2998 > 100 µM | HCT-116 > 100 µM | HL-60 > 100 µM | HOP-62 > 100 µM | HT-29 > 100 µM | Hs-578T > 100 µM | IGROV-1 > 100 µM | K562 > 100 µM | KM12 > 100 µM | M14 > 100 µM | MCF7 > 100 µM | MDA-MB-231 > 100 µM | MDA-MB-435 > 100 µM | MDA-N > 100 µM | MOLT-4 > 100 µM | Malme-3M > 100 µM | NCI-H226 > 100 µM | NCI-H23 > 100 µM | NCI-H460 > 100 µM | NCI-H522 > 100 µM | NCI/ADR-RES > 100 µM | OVCAR-3 > 100 µM | OVCAR-5 > 100 µM | OVCAR-8 > 100 µM | PC-3 > 100 µM | SF-268 > 100 µM | SF-295 > 100 µM | SF-539 > 100 µM | SK-MEL-28 > 100 µM | SK-MEL-2 > 100 µM | SK-MEL-5 > 100 µM | SK-OV-3 > 100 µM | SN12C > 100 µM | SNB-19 > 100 µM | SNB-75 75 µM | SR > 100 µM | SW-620 > 100 µM | T47D > 100 µM | TK-10 > 100 µM | U-251 > 100 µM | UACC-257 > 100 µM | UACC-62 > 100 µM | UO-31 > 100 µM
> 100 µM: HCT-15

CC(=O)N1CC(=O)N2C(=O)/C(=C/c3ccc(Cl)cc3)N=C12
inactive: 786-0 > 100 µM | A498 > 100 µM | A549 > 100 µM | ACHN > 100 µM | BT-549 > 100 µM | CAKI-1 > 100 µM | CCRF-CEM 45 µM | COLO 205 > 100 µM | DU-145 > 100 µM | EKVX > 100 µM | HCC 2998 > 100 µM | HCT-116 > 100 µM | HL-60 27.7 µM | HOP-62 > 100 µM | HOP-92 > 100 µM | HT-29 > 100 µM | Hs-578T 30.9 µM | K562 49.1 µM | KM12 > 100 µM | LOX IMVI > 100 µM | M14 > 100 µM | MCF7 97.9 µM | MDA-MB-231 > 100 µM | MDA-MB-435 > 100 µM | MDA-N > 100 µM | MOLT-4 48.3 µM | Malme-3M > 100 µM | NCI-H226 > 100 µM | NCI-H23 > 100 µM | NCI-H460 > 100 µM | NCI/ADR-RES > 100 µM | OVCAR-3 > 100 µM | OVCAR-4 > 100 µM | OVCAR-5 > 100 µM | OVCAR-8 > 100 µM | PC-3 > 100 µM | RPMI-8226 50.7 µM | RXF 393 > 100 µM | SF-268 > 100 µM | SF-295 > 100 µM | SF-539 > 100 µM | SK-MEL-28 > 100 µM | SK-MEL-2 > 100 µM | SK-MEL-5 > 100 µM | SK-OV-3 > 100 µM | SN12C > 100 µM | SNB-19 > 100 µM | SNB-75 > 100 µM | SW-620 > 100 µM | T47D 53.1 µM | TK-10 > 100 µM | U-251 > 100 µM | UACC-257 > 100 µM | UACC-62 > 100 µM | UO-31 > 100 µM
> 100 µM: HCT-15

O=c1c2cc([N+](=O)[O-])cnc2sn1-c1ccc([N+](=O)[O-])cc1
28.5 µM: HCT-15
inactive: 786-0 40.4 µM | A549 33 µM | ACHN 71.3 µM | BT-549 40 µM | CCRF-CEM 34.8 µM | COLO 205 16.9 µM | DU-145 45.7 µM | EKVX 40.3 µM | HCC 2998 43.8 µM | HCT-116 23.7 µM | HL-60 26 µM | HOP-62 52 µM | HT-29 21.8 µM | Hs-578T 29.2 µM | IGROV-1 52.5 µM | KM12 26.4 µM | LOX IMVI 18.5 µM | M14 48.8 µM | MCF7 22.4 µM | MDA-MB-231 19.9 µM | MDA-MB-435 84.1 µM | MDA-N 87.7 µM | MOLT-4 32.1 µM | Malme-3M 14.2 µM | NCI-H226 74.6 µM | NCI-H23 31.2 µM | NCI-H460 45.1 µM | NCI-H522 7.28 µM | NCI/ADR-RES 28.9 µM | OVCAR-3 34.6 µM | OVCAR-4 27.7 µM | OVCAR-5 59.2 µM | OVCAR-8 42.5 µM | PC-3 22 µM | RPMI-8226 23.9 µM | SF-268 27.1 µM | SF-295 38.2 µM | SF-539 29.2 µM | SK-MEL-28 82.4 µM | SK-MEL-2 23.8 µM | SK-MEL-5 99.5 µM | SK-OV-3 35.5 µM | SN12C 47.2 µM | SNB-19 30.1 µM | SNB-75 38.1 µM | SR 22.1 µM | SW-620 32.1 µM | T47D 14.7 µM | TK-10 > 100 µM | U-251 49.5 µM | UACC-257 > 100 µM | UACC-62 66.4 µM | UO-31 52 µM

CN(C)c1ccc(/C=C(\NC(=O)c2ccccc2)c2nc3ccccc3c(=O)o2)cc1
inactive: 786-0 > 100 µM | A498 > 100 µM | A549 > 100 µM | ACHN > 100 µM | BT-549 > 100 µM | CAKI-1 > 100 µM | CCRF-CEM > 100 µM | COLO 205 > 100 µM | DU-145 > 100 µM | EKVX > 100 µM | HCC 2998 > 100 µM | HCT-116 > 100 µM | HL-60 > 100 µM | HOP-62 71.1 µM | HOP-92 > 100 µM | HT-29 > 100 µM | Hs-578T > 100 µM | IGROV-1 > 100 µM | K562 > 100 µM | KM12 > 100 µM | LOX IMVI > 100 µM | M14 > 100 µM | MCF7 70.5 µM | MDA-MB-231 > 100 µM | MDA-MB-435 > 100 µM | MDA-N 83.4 µM | MOLT-4 > 100 µM | Malme-3M > 100 µM | NCI-H226 > 100 µM | NCI-H23 > 100 µM | NCI-H460 > 100 µM | NCI-H522 46.7 µM | NCI/ADR-RES > 100 µM | OVCAR-3 > 100 µM | OVCAR-4 > 100 µM | OVCAR-5 > 100 µM | OVCAR-8 43.4 µM | PC-3 > 100 µM | RPMI-8226 > 100 µM | RXF 393 > 100 µM | SF-268 > 100 µM | SF-295 > 100 µM | SF-539 > 100 µM | SK-MEL-28 > 100 µM | SK-MEL-2 > 100 µM | SK-MEL-5 91.4 µM | SK-OV-3 > 100 µM | SN12C > 100 µM | SNB-19 > 100 µM | SNB-75 > 100 µM | SW-620 > 100 µM | T47D > 100 µM | TK-10 > 100 µM | U-251 82 µM | UACC-257 > 100 µM | UACC-62 > 100 µM | UO-31 > 100 µM
> 100 µM: HCT-15

Reference: ChEMBL document CHEMBL1201862, “PubChem BioAssay data set” (2004)
